Test results taken from US8642801B2 (BHI Limited Partnership, priority 2003, dated 2014).
Where a name gives a salt, the structure may show the parent alone.

Molecular target: T1, IAPP (Homo sapiens, UniProt P10997)
T1 construct: which is a 37 amino acid peptide, derived from a larger precursor peptide, called pro-IAPP
T1 sequence (P10997 34-70 limits assumed): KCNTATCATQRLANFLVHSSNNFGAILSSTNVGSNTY
Assay: MS (electrospray mass spectrometry) binding assay for IAPP
Details: Table 3B; 30 μM Aβ peptide, 150 μM compound (so in the source)

Row | MS binding IAPP | Structure (SMILES)
1 | +++ (60-100% binding=(+++)) | CC(CCNC12CC3CC(CC(C3)C1)C2)S(=O)(=O)O (stereo not shown) [JH, 4-(adamantyl)amino-2-butanesulfonic acid]
2 | +++ (60-100% binding=(+++)) | CC(CCN)S(=O)(=O)O (stereo not shown) [JR, 4-amino-2-butanesulfonic acid]
3 | +++ (60-100% binding=(+++)) | C[C@@H](NCCCS(=O)(=O)O)c1ccccc1 [IY]
4 | +++ (60-100% binding=(+++)) | CC(CCNC1C2CC3CC(C2)CC1C3)S(=O)(=O)O (stereo not shown) [JI, 4-(2-adamantyl)amino-2-butanesulfonic acid]

Same assay, conditions: Table 3D; 40 μM Aβ peptide, 400 μM compound (so in the source)

Row | MS binding IAPP | Structure (SMILES)
5 | ++ (40-74% binding=(++)) | O=S(=O)(O)CCCN1CCC=C(c2ccccc2)C1 [IG]
6 | − (<20%=(−)) | O=S(=O)(O)CCCn1ccnc1 [HR]
7 | + (20-39% binding=(+)) | O=S(=O)(O)CCCNc1ccccc1O [HU]
8 | + (20-39% binding=(+)) | O=S(=O)(O)CCCNc1ccc(F)cc1 [HT]
9 | + (20-39% binding=(+)) | CC(C)(C)OC(=O)NCCCS(=O)(=O)O [IA]
10 | − (<20%=(−)) | Nc1ccc(NCCCS(=O)(=O)O)cc1 [HM]
11 | + (20-39% binding=(+)) | COc1ccc(NCCCS(=O)(=O)O)cc1 [HL]
12 | + (20-39% binding=(+)) | O=S(=O)(O)CCCn1cccc1 [HV]

Molecular target: T1, IAPP
Assay: as above
Details: Table 3C; 20 μM Aβ peptide, 100 μM compound (so in the source)
Text: (§1) The ability of a therapeutic compound of the invention to inhibit an interaction between an amyloidogenic protein and a glycoprotein or proteoglycan constituent of a basement membrane can be assessed by an in vitro binding assay, such as that described in U.S. Pat. No. 5,164,295, the contents of which are hereby incorporated by reference. Alternatively, the ability of a compound to bind to an amyloidogenic protein or to inhibit the binding of a basement membrane constituent (e.g., HSPG) to an amyloidogenic protein (e.g., Aβ) can be measured using a mass spectrometry assay where soluble protein, e.g., Aβ, IAPP, β2M is incubated with the compound. A compound which binds to, e.g., Aβ, will induce a change in the mass spectrum of the protein. Exemplary protocols for a mass spectrometry assay employing Aβ and IAPP can be found in the Examples, the results of which are provided in Table 3. The protocol can readily be modified to adjust the sensitivity of the data, e.g., by adjusting the amount of protein and/or compound employed. Thus, e.g., binding might be detected for test compounds noted as not having detectable binding employing less sensitive test protocols.
(§2) The test compounds were synthesized and screened by mass spectrometry (“MS”) assays, except for selected compounds which were purchased from a commercial source. The MS assay gives data on the ability of compounds to bind to proteins, in this example, to β-amyloid and IAPP.
(§3) In the MS assay for Aβ40, samples were prepared as aqueous solutions (adding 20% ethanol if necessary to solubilize in water), 200 μM of a test compound and 20 μM of solubilized Aβ40, or 400 μM of a test compound and 40 μM of solubilized Aβ40. The pH value of each sample was adjusted to 7.4 (±0.2) by addition of 0.1% aqueous sodium hydroxide. The solutions were then analyzed by electrospray ionization mass spectrometry using a Waters ZQ 4000 mass spectrometer. Samples were introduced by direct infusion at a flow-rate of 25 μL/min within 2 hr. after sample preparation. The source temperature was kept at 70° C. and the cone voltage was 20 V for all the analysis. Data were processed using Masslynx 3.5 software. The MS assay gives data on the ability of compounds to bind to soluble Aβ, whereas the ThT, EM and CD assays give data on inhibition of fibrillogenesis. In Table 3, a blank box means that a value was not determined for that compound in that assay.
The key below describes the codes used in Table 3A to quantify the binding based on the intensity of the absorption.

Row | Structure (SMILES) | MS binding IAPP
13 | O=S(=O)(O)CC(O)CNC1CC2CCC1C2 (stereo not shown) [KI, 3-(bicyclo[2.2.1]hept-2-ylamino)-2-hydroxy-1-propanesulfonic acid] | + (20-39% binding=(+))
14 | O=S(=O)(O)CCCCCNC1CC2CCC1C2 (stereo not shown) [LQ] | +++ (75-100% binding=(+++))
15 | CC(CCN1CCCCC1)S(=O)(=O)O (stereo not shown) [JS, 4-piperidin-1-yl-2-butanesulfonic acid] | + (20-39% binding=(+))
16 | CCCCCCCCNCC(O)CS(=O)(=O)O (stereo not shown) [JW] | ++ (40-74% binding=(++))
17 | O=S(=O)(O)CCCCNC1CCCc2ccccc21 (stereo not shown) [LG] | ++ (40-74% binding=(++))
18 | CCNCC(O)CS(=O)(=O)O (stereo not shown) [JU, 3-(ethylamino)-2-hydroxy-1-propanesulfonic acid] | ++ (40-74% binding=(++))
19 | O=S(=O)(O)CC(O)CNC1CCCc2ccccc21 (stereo not shown) [JZ, 2-hydroxy-3-(1,2,3,4-tetrahydronaphthalen-1-ylamino)propane-1-sulfonic acid] | +++ (75-100% binding=(+++))
20 | CCCCCCCCNCCC(C)S(=O)(=O)O (stereo not shown) [JG, 4-(octylamino)-2-butanesulfonic acid] | +++ (75-100% binding=(+++))
21 | CCCC(CO)NCCCCS(=O)(=O)O (racemic) [LL, 4-[(dl)-1-hydroxy-2-pentyl]amino-1-butanesulfonic acid] | ++ (40-74% binding=(++))
22 | O=S(=O)([O-])CCCC[N+]12CCC(CC1)CC2 [LF] | + (20-39% binding=(+))
23 | CC(CCNC1CC2CCC1C2)S(=O)(=O)O (stereo not shown) [JJ, 4-(bicyclo[2.2.1]hept-2-ylamino)-2-butanesulfonic acid] | +++ (75-100% binding=(+++))
24 | COc1ccc(OC)c(CNCCCS(=O)(=O)O)c1 [JB] | + (20-39% binding=(+))
25 | O=S(=O)([O-])CCC[N+]12CCC(CC1)CC2 [JM] | + (20-39% binding=(+))
26 | CC(C)CCNCC(O)CS(=O)(=O)O (stereo not shown) [KK, 2-hydroxy-3-[(3-methylbutyl)amino]-1-propane sulfonic acid] | +++ (75-100% binding=(+++))
27 | CC(CCNC1CCCc2ccccc21)S(=O)(=O)O (stereo not shown) [JF, 4-(1,2,3,4-tetrahydro-1-naphthylamino)-2-butanesulfonic acid] | ++ (40-74% binding=(++))
28 | O=S(=O)(O)CC(O)CN1CCCCC1 (stereo not shown) [KA, 2-hydroxy-3-piperidin-1-ylpropane-1-sulfonic acid] | ++ (40-74% binding=(++))
29 | CN(C)CC(O)CS(=O)(=O)[O-].[Na+] (stereo not shown) [JT, 3-(dimethylamino)-2-hydroxy-1-propane sulfonic acid, sodium salt] | + (20-39% binding=(+))
30 | O=S(=O)(O)CCCNC(Cc1ccccc1)c1ccccc1 (stereo not shown) [JC] | + (20-39% binding=(+))
31 | CC(CCN(C)C)S(=O)(=O)[O-].[Na+] (stereo not shown) [JO, 4-(dimethylamino)-2-butanesulfonic acid] | ++ (40-74% binding=(++))
32 | O=S(=O)([O-])CC(O)CNCc1ccccc1.[Na+] (stereo not shown) [JY] | +++ (75-100% binding=(+++))
33 | O=S(=O)([O-])CC(O)C[N+]12CCC(CC1)CC2 (stereo not shown) [JX, 1-(3-sulfo-2-hydroxypropyl) quinuclidinium, inner salt] | ++ (40-74% binding=(++))
34 | CCCCCCCCCNCCC(C)S(=O)(=O)[O-].[Na+] (stereo not shown) [JN, 4-(nonylamino)-2-butanesulfonic acid] | + (20-39% binding=(+))
35 | O=S(=O)(O)CCCCNC12CC3CC(CC(C3)C1)C2 [LI, 4-(adamantyl)amino-1-butanesulfonic acid] | +++ (75-100% binding=(+++))
36 | CCCC(CO)NCCC(C)S(=O)(=O)O (racemic) [JL, 4-[(dl)-1-hydroxy-2-pentyl]amino-2-butane sulfonic acid] | ++ (40-74% binding=(++))
37 | CCCCCCCCNCCCCS(=O)(=O)O [LJ, 4-(octylamino)-1-butanesulfonic acid] | +++ (75-100% binding=(+++))

Results, then the compound that gave them:

Row | MS binding IAPP | Structure (SMILES)
38 | ++ (40-74% binding=(++)) | CCNCCCCS(=O)(=O)O [LE, 4-(ethylamino)-1-butanesulfonic acid]
39 | + (20-39% binding=(+)) | CN(C)CCS(=O)(=O)O [KQ]
40 | ++ (40-74% binding=(++)) | CCOc1ccccc1CNCCCS(=O)(=O)O [JD]
41 | ++ (40-74% binding=(++)) | C[C@H](NCCCS(=O)(=O)O)c1ccccc1 [JA]
42 | + (20-39% binding=(+)) | CN(C)CCCCS(=O)(=O)O [LH, 4-Dimethylamino-1-butanesulfonic acid]
43 | +++ (75-100% binding=(+++)) | C[C@H]([C@@H](O)c1ccccc1)N(C)CCCS(=O)(=O)O [IZ]
44 | +++ (75-100% binding=(+++)) | COc1ccccc1CNCCCS(=O)(=O)O [IW]
45 | ++ (40-74% binding=(++)) | CC(C)(C)NCCCCS(=O)(=O)O [LD, 4-(tert-butylamino)-1-butanesulfonic acid]

Molecular target: T2, Aβ1-40 (Homo sapiens, UniProt P05067)
T2 construct: most is normally secreted as a 40 (“Aβ1-40”) or 42 (“Aβ1-42”) amino acid peptide
T2 sequence (P05067 672-711 limits assumed): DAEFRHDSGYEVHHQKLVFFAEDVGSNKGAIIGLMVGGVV
Assay: MS (electrospray mass spectrometry) binding assay for Aβ40
Details: Table 3B; 30 μM Aβ peptide, 150 μM compound
Text: as §1, §2
as §3, with “The” for “In the MS assay for Aβ40, samples were prepared as aqueous solutions (adding 20% ethanol if necessary to solubilize in water), 200 μM of a test compound and 20 μM of solubilized Aβ40, or 400 μM of a test compound and 40 μM of solubilized Aβ40. The”

Row | MS binding Aβ1-40 | Structure (SMILES)
46 | ++ (40-59% binding=(++)) | CC(CCNC12CC3CC(CC(C3)C1)C2)S(=O)(=O)O (stereo not shown) [JH, 4-(adamantyl)amino-2-butanesulfonic acid]
47 | ++ (40-59% binding=(++)) | CC(CCN)S(=O)(=O)O (stereo not shown) [JR, 4-amino-2-butanesulfonic acid]
48 | ++ (40-59% binding=(++)) | C[C@@H](NCCCS(=O)(=O)O)c1ccccc1 [IY]
49 | +++ (60-100% binding=(+++)) | CC(CCNC1C2CC3CC(C2)CC1C3)S(=O)(=O)O (stereo not shown) [JI, 4-(2-adamantyl)amino-2-butanesulfonic acid]

Row | Structure (SMILES) | MS binding Aβ1-40
50 | CCCCCCNC(=O)NCCCS(=O)(=O)[O-].[Na+] [AI] | +++ (60-100% binding=(+++))

Same assay, conditions: Table 3C; 20 μM Aβ peptide, 100 μM compound

Row | Structure (SMILES) | MS binding Aβ1-40
51 | CC(CCNC1CC2CCC1C2)S(=O)(=O)O (stereo not shown) [JJ, 4-(bicyclo[2.2.1]hept-2-ylamino)-2-butanesulfonic acid] | ++ (40-74% binding=(++))
52 | COc1ccc(OC)c(CNCCCS(=O)(=O)O)c1 [JB] | + (20-39% binding=(+))
53 | O=S(=O)([O-])CCC[N+]12CCC(CC1)CC2 [JM] | − (<20%=(−))
54 | CC(CCNC1CCCc2ccccc21)S(=O)(=O)O (stereo not shown) [JF, 4-(1,2,3,4-tetrahydro-1-naphthylamino)-2-butanesulfonic acid] | + (20-39% binding=(+))
55 | CC(CCN(C)C)S(=O)(=O)[O-].[Na+] (stereo not shown) [JO, 4-(dimethylamino)-2-butanesulfonic acid] | + (20-39% binding=(+))
56 | CCCCCCCCCNCCC(C)S(=O)(=O)[O-].[Na+] (stereo not shown) [JN, 4-(nonylamino)-2-butanesulfonic acid] | ++ (40-74% binding=(++))
57 | CCCC(CO)NCCC(C)S(=O)(=O)O (racemic) [JL, 4-[(dl)-1-hydroxy-2-pentyl]amino-2-butane sulfonic acid] | ++ (40-74% binding=(++))

Next, values leading:

Row | MS binding Aβ1-40 | Structure (SMILES)
58 | + (20-39% binding=(+)) | CCOc1ccccc1CNCCCS(=O)(=O)O [JD]
59 | + (20-39% binding=(+)) | C[C@H](NCCCS(=O)(=O)O)c1ccccc1 [JA]
60 | − (<20%=(−)) | C[C@H]([C@@H](O)c1ccccc1)N(C)CCCS(=O)(=O)O [IZ]
61 | ++ (40-74% binding=(++)) | COc1ccccc1CNCCCS(=O)(=O)O [IW]

Same assay, conditions: Table 3D; 40 μM Aβ peptide, 400 μM compound

Row | Structure (SMILES) | MS binding Aβ1-40
62 | O=S(=O)(O)CCCNC1CN2CCC1CC2 (stereo not shown) [HQ] | + (20-39% binding=(+))
63 | CC(C)(C)OC(=O)NCCCS(=O)(=O)O [IA] | +++ (75-100% binding=(+++))

More lines, now with the values ahead:

Row | MS binding Aβ1-40 | Structure (SMILES)
64 | +++ (75-100% binding=(+++)) | O=S(=O)(O)CCCN1CCC=C(c2ccccc2)C1 [IG]
65 | ++ (40-74% binding=(++)) | O=S(=O)(O)CCCn1ccnc1 [HR]
66 | +++ (75-100% binding=(+++)) | O=S(=O)(O)CCCNc1ccccc1O [HU]
67 | ++ (40-74% binding=(++)) | O=S(=O)(O)CCCNc1ccc(F)cc1 [HT]
68 | + (20-39% binding=(+)) | Nc1ccc(NCCCS(=O)(=O)O)cc1 [HM]
69 | ++ (40-74% binding=(++)) | COc1ccc(NCCCS(=O)(=O)O)cc1 [HL]
70 | ++ (40-74% binding=(++)) | O=S(=O)(O)CCCn1cccc1 [HV]
